The text below walks through data of patent publication US11787775B2, “Therapeutic compounds and methods of use” (priority 2020, dated 2023).

A value given as a limit tells only on which side of the number the result lay.

The term IC50 denotes the concentration that gives 50% inhibition. One may read the EC50 as the concentration giving half of the maximal effect.

Assay type in all cases: binding
Assay [1] has as its target TEAD3 (Homo sapiens (Human), UniProt Q99594). The experiment in a line: TEAD lipid pocket TR-FRET (Lipid HTRF) probe competition assay. Conditions: 30 mins incubation with compound. As to the method: (§1) His-tagged TEAD proteins are pre-incubated with TEAD project compounds for 30 minutes or 4 hours at room temperature. Biotinylated lipid pocket probes are then added to the TEAD/Compound mixture and incubated for 60 minutes at room temperature. The lipid pocket probe competes with the test compound for the TEAD lipid pocket until equilibrium is reached. After 60 minutes, Europium labelled anti-His (Perkin Elmer #ADO 110) and XL665 labelled streptavidin (CIS Bio 610SAXAC) are added to the TEAD/test compound/lipid pocket mixture and incubated for 30 minutes or 4 hours. […] If a TEAD lipid pocket binder such as binds and displaces the lipid pocket probe, the disruption of the TEAD:probe interaction results in a decrease in TR-FRET signal. The potency of compounds as TEAD lipid pocket binders is determined by IC50 value generated using a non-linear 4 parameter curve fit.
(§2) Note that the “Compound Number” in Table 2 and Table 3 corresponds to the “Compound Number” in Table 1.
For orientation: TR-FRET usually uses a lanthanide donor and a delayed reading to cut background.

Assay [2] concerns the target TEAD4 (Homo sapiens (Human), UniProt Q15561). The assay is described as above. Conditions: 30 mins incubation with compound; read-out: Lipid HTRF TEAD4 IC50. Here is the method: as §1, §2
In assay [3] the target is TEAD1 (Homo sapiens (Human), UniProt P28347). Described as above. Conditions: 30 mins incubation with compound; read-out: Lipid HTRF TEAD1 IC50. Here is the method:
as §1, §2

Assay [4] has as its target TEAD2 (Homo sapiens (Human), UniProt Q15562). Described as above. Conditions: 30 mins incubation with compound; read-out: Lipid HTRF TEAD2 IC50. Here is the method: as §1, §2
In assay [5] the target is TEAD1 YAP50-100 (Homo sapiens (Human), UniProt P28347). The experiment in a line: TEAD-YAP protein-protein interaction HTRF assay. To be noted: TEAD1 YAP50-100 HTRF combined EC50, 30 mins incubation with compound. As to the method:
(§3) Purified His-tagged TEAD protein (YAP Binding Domain, amino acids 217-447) is pre-incubated with Europium labelled anti-His antibody tracer (Perkin Elmer Cat #AD0110). Small molecule Inhibitors are then incubated with the TEAD-Eu protein complex for 30 minutes or 4 hours to allow for binding to TEAD protein. Biotinylated YAP peptide for TEAD-YAP assays (AA's 50-100) or biotinylated TAZ peptide for TEAD-TAZ assays (AA's 13-57) that has been pre-incubated with streptavidin −xl665 acceptor (CIS-Bio Cat #610SAXAC) or is added to the compound-TEAD mix. The TEAD-YAP-inhibitor mixture is then incubated for 60 minutes at room temperature. All reactions are carried out in a polystyrene plate. After 60 minutes, the plate is read on a plate reader using TR-FRET mode with wavelengths of 665 nm/615 nm. If YAP or TAZ binds to TEAD as expected, a TR-FRET signal results from the proximity of YAP or TAZ and TEAD after binding. If an inhibitor such as peptide 17 (Selleckchem Cat #S8164) interferes with YAP-TEAD or TAZ-TEAD binding, the disruption of the YAP or TAZ:TEAD interaction results in a decrease in TR-FRET signal. The potency of compounds as YAP:TEAD or TAZ:TEAD protein-protein interaction (PPi) inhibitors is determined by an IC50 or EC50 value generated using a non-linear four parameter curve fit. The extent to which representative examples of the disclosed compounds are able to inhibit interaction between TEAD1, TEAD2, TEAD3 or TEAD4 and YAP truncated from amino acids 50-100 or TAZ truncated from amino acids 13-57 as measured by Homogeneous Time Resolved Fluorescence (HTRF) to generate EC50 and IC50 data.
(§4) Note that the “Compound Number” in Table 4 corresponds to the “Compound Number” in Table 1. […]

Assay [6] addresses TEAD4 YAP50-100 (Homo sapiens (Human), UniProt Q15561). The experiment in a line: TEAD-YAP protein-protein interaction HTRF assay. Conditions: TEAD4 YAP50-100 HTRF combined EC50, 30 mins incubation with compound. Here is the method:
as §3, §4

Assay [7] has as its target TEAD2 YAP50-100 (Homo sapiens (Human), UniProt Q15562). The experiment in a line: TEAD-YAP protein-protein interaction HTRF assay. Conditions: TEAD2 YAP50-100 HTRF combined EC50, 30 mins incubation with compound. Here is the method: as §3, §4
The target in assay [8] is TEAD3 YAP50-100 (Homo sapiens (Human), UniProt Q99594). The experiment in a line: TEAD-YAP protein-protein interaction HTRF assay. Conditions: TEAD3 YAP50-100 HTRF combined EC50, 30 mins incubation with compound. Here is the method:
as §3, §4

TEAD3, sequence (Q99594 whole entry, species assumed): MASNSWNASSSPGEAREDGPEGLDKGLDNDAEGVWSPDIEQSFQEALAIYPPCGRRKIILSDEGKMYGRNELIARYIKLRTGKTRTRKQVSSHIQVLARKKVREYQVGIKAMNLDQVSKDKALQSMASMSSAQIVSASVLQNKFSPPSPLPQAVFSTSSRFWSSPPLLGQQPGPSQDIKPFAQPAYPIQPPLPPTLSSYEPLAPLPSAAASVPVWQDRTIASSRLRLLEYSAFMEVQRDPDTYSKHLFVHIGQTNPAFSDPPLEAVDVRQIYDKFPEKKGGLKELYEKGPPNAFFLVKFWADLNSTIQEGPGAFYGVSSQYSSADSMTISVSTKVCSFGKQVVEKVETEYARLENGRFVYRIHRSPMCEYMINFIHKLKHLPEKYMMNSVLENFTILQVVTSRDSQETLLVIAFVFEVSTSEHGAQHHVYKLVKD
TEAD4, sequence (Q15561 whole entry, species assumed): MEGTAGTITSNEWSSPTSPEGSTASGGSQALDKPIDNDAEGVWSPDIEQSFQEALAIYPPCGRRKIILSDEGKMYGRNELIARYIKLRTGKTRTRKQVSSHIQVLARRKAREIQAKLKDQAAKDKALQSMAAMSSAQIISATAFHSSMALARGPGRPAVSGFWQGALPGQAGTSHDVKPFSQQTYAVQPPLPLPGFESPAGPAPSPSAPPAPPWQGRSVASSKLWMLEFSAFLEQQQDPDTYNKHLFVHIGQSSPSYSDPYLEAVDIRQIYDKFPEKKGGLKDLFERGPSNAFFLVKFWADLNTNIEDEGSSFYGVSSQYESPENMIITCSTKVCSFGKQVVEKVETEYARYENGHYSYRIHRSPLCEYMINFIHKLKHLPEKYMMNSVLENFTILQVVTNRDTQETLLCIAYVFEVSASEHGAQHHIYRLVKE
TEAD1 YAP50-100, sequence (P28347 209-426): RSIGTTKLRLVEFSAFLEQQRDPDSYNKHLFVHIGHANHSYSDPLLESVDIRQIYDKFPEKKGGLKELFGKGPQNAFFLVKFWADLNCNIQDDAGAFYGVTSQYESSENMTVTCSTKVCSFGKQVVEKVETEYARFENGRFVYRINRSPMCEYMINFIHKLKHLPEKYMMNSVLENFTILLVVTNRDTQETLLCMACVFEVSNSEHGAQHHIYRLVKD
TEAD3 YAP50-100, sequence (Q99594 218-435): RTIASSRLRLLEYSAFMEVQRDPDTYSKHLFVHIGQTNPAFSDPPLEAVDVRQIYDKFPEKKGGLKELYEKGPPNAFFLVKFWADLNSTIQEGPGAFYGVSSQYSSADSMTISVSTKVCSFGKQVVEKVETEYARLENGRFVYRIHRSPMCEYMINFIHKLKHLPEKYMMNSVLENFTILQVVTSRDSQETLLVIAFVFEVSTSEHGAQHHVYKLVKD
TEAD1, sequence (P28347 whole entry, species assumed): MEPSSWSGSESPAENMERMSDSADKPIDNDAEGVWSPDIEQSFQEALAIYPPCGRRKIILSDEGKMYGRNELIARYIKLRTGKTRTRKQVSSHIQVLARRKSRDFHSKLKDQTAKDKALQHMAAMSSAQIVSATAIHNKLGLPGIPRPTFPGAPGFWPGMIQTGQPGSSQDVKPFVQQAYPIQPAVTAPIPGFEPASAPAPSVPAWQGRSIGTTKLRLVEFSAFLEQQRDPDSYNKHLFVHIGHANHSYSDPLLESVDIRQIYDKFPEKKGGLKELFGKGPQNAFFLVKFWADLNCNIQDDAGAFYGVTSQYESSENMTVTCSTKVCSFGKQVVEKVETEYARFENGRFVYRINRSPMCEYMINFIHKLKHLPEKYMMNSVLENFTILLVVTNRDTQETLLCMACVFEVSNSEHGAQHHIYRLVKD
TEAD2, sequence (Q15562 whole entry): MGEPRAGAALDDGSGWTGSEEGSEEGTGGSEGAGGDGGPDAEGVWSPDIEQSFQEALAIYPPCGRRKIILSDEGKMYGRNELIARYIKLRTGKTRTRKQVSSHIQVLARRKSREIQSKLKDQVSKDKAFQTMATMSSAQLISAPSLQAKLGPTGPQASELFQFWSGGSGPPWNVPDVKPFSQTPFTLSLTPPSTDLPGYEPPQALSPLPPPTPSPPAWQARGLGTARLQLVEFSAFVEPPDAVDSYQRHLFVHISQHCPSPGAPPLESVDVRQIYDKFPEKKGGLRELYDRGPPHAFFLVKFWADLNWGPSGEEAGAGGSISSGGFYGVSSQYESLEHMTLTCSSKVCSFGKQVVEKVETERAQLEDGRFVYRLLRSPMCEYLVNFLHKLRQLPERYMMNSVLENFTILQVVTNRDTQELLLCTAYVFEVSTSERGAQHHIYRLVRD
TEAD2 YAP50-100, sequence (Q15562 217-447): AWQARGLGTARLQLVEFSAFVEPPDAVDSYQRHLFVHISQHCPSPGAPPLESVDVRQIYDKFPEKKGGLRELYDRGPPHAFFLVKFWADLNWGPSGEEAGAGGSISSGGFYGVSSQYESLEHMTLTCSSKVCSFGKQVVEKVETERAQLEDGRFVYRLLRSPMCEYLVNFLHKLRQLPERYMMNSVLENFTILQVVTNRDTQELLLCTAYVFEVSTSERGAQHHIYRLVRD
TEAD4 YAP50-100, sequence (Q15561 217-434): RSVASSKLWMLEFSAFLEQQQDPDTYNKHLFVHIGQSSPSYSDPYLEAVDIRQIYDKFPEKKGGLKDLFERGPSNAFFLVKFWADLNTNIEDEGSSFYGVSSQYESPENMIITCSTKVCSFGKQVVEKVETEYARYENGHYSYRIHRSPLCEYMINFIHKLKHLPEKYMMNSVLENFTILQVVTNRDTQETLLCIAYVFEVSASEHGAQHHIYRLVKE

Regarding `C=C(CNc1cc(-c2ccc(C(C)C)cc2)c2c(c1CO)CCO2)C(=O)O` [Compound 12, 2-[[[4-(hydroxymethyl)-7-(4-isopropylphenyl)-2,3-dihydrobenzofuran-5-yl]amino]methyl]prop-2-enoic acid], the IC50 was 47 µM in assay [1], 0.47 µM in assay [2], 1.5 µM in assay [3] and 0.93 µM in assay [4]. Further, the EC50 is 0.78 µM in assay [5], 0.75 µM in assay [6], 0.3 µM in assay [7] and greater than 50 µM in assay [8].
Take `C=C(CNc1cc(-c2ccc(C(C)C)cc2)c2c(c1CO)CCO2)C(N)=O` [Compound 13, 2-[[[4-(hydroxymethyl)-7-(4-isopropylphenyl)-2,3-dihydrobenzofuran-5-yl]amino]methyl]prop-2-enamide]: the IC50 amounted to 11 µM in assay [1], 0.18 µM in assay [2], 0.78 µM in assay [3] and 0.22 µM in assay [4]. For the same molecule, the EC50 in assay [5] turned out to be 0.33 µM; in assay [6], 0.18 µM; in assay [7] it was 0.04 µM; in assay [8] it was 22 µM.
For `C=C(CNc1cc(-c2ccc(C(C)C)cc2)c2c(c1CO)CCO2)C(=O)NO` [Compound 14, 2-[[[4-(hydroxymethyl)-7-(4-isopropylphenyl)-2,3-dihydrobenzofuran-5-yl]amino]methyl]prop-2-enehydroxamic acid], the IC50 came out at 2.4 µM in assay [1], 0.42 µM in assay [2], 0.52 µM in assay [3] and 0.12 µM in assay [4]. The EC50 in assay [5] stood at 0.28 µM; in assay [6], 0.89 µM; in assay [7], 0.07 µM; in assay [8], 3.4 µM.
Turning to `C=C(CNc1cc(-c2ccc(C(F)(F)F)cc2)c2c(c1C#N)CCO2)C(=O)O` [Compound 15, 2-[[[4-cyano-7-[4-(trifluoromethyl)phenyl]-2,3-dihydrobenzofuran-5-yl]amino]methyl]prop-2-enoic acid], the IC50 in assay [1] came to 3.4 µM; in assay [2], 0.11 µM; in assay [3] it was 0.05 µM; in assay [4] it was 0.53 µM. In addition, the concentration giving a half-maximal response (EC50) in assay [5] was 0.04 µM; in assay [6], 0.25 µM; in assay [7] it was 0.38 µM; in assay [8], 11 µM.
For `C=C(CNc1cc(-c2ccc(OC(F)(F)F)cc2)c2c(c1C#N)CCO2)C(=O)O` [Compound 18, 2-[[[4-cyano-7-[4-(trifluoromethoxy)phenyl]-2,3-dihydrobenzofuran-5-yl]amino]methyl]prop-2-enoic acid], the IC50 in assay [1] amounted to 2.5 µM; in assay [2], 0.03 µM; in assay [3], 0.03 µM; in assay [4] it was 0.14 µM. For the same molecule, the concentration giving a half-maximal response (EC50) in assay [5] was 0.02 µM; in assay [6] it was 0.06 µM; in assay [7], 0.09 µM; in assay [8] it was 7.8 µM.
On to `C=C(CNc1cc(-c2ccc(C(C)(F)F)cc2)c2c(c1C#N)CCO2)C(=O)O` [Compound 19, 2-[[[4-cyano-7-[4-(1,1-difluoroethyl)phenyl]-2,3-dihydrobenzofuran-5-yl]amino]methyl]prop-2-enoic acid], for which the half-inhibitory concentration (IC50) is 6.4 µM in assay [1], 0.11 µM in assay [2], 0.05 µM in assay [3] and 0.35 µM in assay [4]. Further, the EC50 in assay [5] turned out to be 0.04 µM; in assay [6], 0.23 µM; in assay [7], 0.19 µM; in assay [8], 15 µM.
Regarding `C=C(CNc1nc2c(c(-c3ccc(C(C)C)cc3)n1)OCC2)C(=O)O` [Compound 20, 2-[[[4-(4-isopropylphenyl)-6,7-dihydrofuro[3,2-d]pyrimidin-2-yl]amino]methyl]prop-2-enoic acid], the IC50 in assay [1] is 3.8 µM; in assay [2] it was 0.02 µM; in assay [3] it was 0.2 µM; in assay [4], 0.07 µM. Besides, the EC50 was 0.15 µM in assay [5], 0.04 µM in assay [6], 0.04 µM in assay [7] and greater than 50 µM in assay [8].
As to `C=C(CNc1cc(-c2ccc(C(C)C)cc2)c2c(c1F)CCO2)C(=O)O` [Compound 21, 2-[[[4-fluoro-7-(4-isopropylphenyl)-2,3-dihydrobenzofuran-5-yl]amino]methyl]prop-2-enoic acid], the IC50 in assay [1] amounted to 4 µM; in assay [2], 0.02 µM; in assay [3], 0.06 µM; in assay [4], 0.07 µM. The EC50 in assay [5] was 0.04 µM; in assay [6], 0.03 µM; in assay [7] it was less than 0.01 µM; in assay [8], greater than 50 µM.
With `C=C(CNc1nc(-c2ccc(C(C)C)cc2)c2c(c1C#N)CCO2)C(=O)O` [Compound 22, 2-[[[4-cyano-7-(4-isopropylphenyl)-2,3-dihydrofuro[2,3-c]pyridin-5-yl]amino]methyl]prop-2-enoic acid], the IC50 in assay [1] came out at 15 µM; in assay [2] it was 0.05 µM; in assay [3], 0.09 µM; in assay [4] it was 0.1 µM. Besides, the EC50 in assay [5] was 0.06 µM; in assay [6], 0.1 µM; in assay [7], 0.06 µM; in assay [8], greater than 50 µM.
Regarding `C=C(CNc1cc(-c2ccc(C(C)(F)F)cc2)c2ncsc2c1C#N)C(=O)O` [Compound 24, 2-[[[7-cyano-4-[4-(1,1-difluoroethyl)phenyl]-1,3-benzothiazol-6-yl]amino]methyl]prop-2-enoic acid], the IC50 came out at 20 µM in assay [1], 0.37 µM in assay [2], 0.16 µM in assay [3] and 0.74 µM in assay [4]. In addition, the EC50 was 0.08 µM in assay [5], greater than 50 µM in assay [6], 0.26 µM in assay [7] and 15 µM in assay [8].
As to `C=C(CNc1cnc(OC)c(/C=C/[C@H]2CC[C@H](C(F)(F)F)CC2)c1)C(=O)O` [Compound 25, 2-[[[6-methoxy-5-[(E)-2-[trans-4-(trifluoromethyl)cyclohexyl]vinyl]-3-pyridyl]amino]methyl]prop-2-enoic acid], the concentration for half-maximal inhibition (IC50) in assay [1] came out at 1.25 µM; in assay [2], 0.14 µM; in assay [3] it was 0.58 µM; in assay [4] it was 0.27 µM. Further, the EC50 in assay [5], in assay [6], in assay [7] and in assay [8] was greater than 50 µM each time.
As to `C=C(CNc1cc(-c2c(F)cc(C(C)C)cc2F)c2c(c1C#N)CCO2)C(=O)O` [Compound 28, 2-[[[4-cyano-7-(2,6-difluoro-4-isopropyl-phenyl)-2,3-dihydrobenzofuran-5-yl]amino]methyl]prop-2-enoic acid], the IC50 in assay [1] came out at 16 µM; in assay [2], 0.32 µM; in assay [3] it was 0.69 µM; in assay [4], 0.35 µM. Further, the EC50 in assay [5], in assay [6], in assay [7] and in assay [8] was greater than 50 µM each time.
Regarding `C=C(CNc1cc(-c2ccc(C(C)C)cc2F)c2c(c1C#N)CCO2)C(=O)O` [Compound 30, 2-[[[4-cyano-7-(2-fluoro-4-isopropyl-phenyl)-2,3-dihydrobenzofuran-5-yl]amino]methyl]prop-2-enoic acid], the IC50 was 5.9 µM in assay [1], 0.03 µM in assay [2], 0.05 µM in assay [3] and 0.1 µM in assay [4]. For the same molecule, the EC50 in assay [5] worked out at 0.03 µM; in assay [6], 0.04 µM; in assay [7], 0.04 µM; in assay [8] it was 8.2 µM.
